For one experiment, the target named is T1, FLAG-KDM4A1-1,064 (Homo sapiens, UniProt O75164).
T1 construct: expressed in transfected cells; host or cells: U2OS
T1 sequence (O75164 1-1064): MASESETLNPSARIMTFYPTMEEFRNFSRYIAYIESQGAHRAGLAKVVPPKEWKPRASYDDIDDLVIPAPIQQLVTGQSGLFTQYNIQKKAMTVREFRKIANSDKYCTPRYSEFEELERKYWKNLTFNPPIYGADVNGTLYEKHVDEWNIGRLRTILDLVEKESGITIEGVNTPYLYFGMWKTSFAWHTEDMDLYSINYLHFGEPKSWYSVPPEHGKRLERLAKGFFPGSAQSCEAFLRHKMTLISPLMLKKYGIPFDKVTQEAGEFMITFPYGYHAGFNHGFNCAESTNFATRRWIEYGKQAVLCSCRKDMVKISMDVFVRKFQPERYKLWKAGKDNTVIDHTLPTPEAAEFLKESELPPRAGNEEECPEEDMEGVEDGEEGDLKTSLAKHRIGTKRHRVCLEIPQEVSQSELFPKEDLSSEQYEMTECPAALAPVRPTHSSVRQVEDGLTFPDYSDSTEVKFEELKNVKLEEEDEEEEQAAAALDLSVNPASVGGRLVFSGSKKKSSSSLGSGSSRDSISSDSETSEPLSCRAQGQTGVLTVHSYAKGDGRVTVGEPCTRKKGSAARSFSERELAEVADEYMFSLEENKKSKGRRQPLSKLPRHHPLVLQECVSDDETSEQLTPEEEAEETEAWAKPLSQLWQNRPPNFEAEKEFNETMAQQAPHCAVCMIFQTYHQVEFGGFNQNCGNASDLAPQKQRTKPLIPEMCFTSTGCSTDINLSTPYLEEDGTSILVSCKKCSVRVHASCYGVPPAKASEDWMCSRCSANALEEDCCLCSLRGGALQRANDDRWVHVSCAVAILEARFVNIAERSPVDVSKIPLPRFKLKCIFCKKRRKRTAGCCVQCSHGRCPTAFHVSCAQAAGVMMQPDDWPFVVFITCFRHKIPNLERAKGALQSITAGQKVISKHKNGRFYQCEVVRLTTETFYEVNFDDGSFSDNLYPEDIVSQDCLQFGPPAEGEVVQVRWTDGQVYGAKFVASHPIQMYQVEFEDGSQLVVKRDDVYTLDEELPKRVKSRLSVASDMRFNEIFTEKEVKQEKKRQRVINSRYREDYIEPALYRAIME
In words: CETSA, FLAG-KDM4A in U2OS cells. Type of experiment: cell-based. As to conditions: 0.5 μM, 20 h dosing, DMSO 47 °C. How it is done: Control cells were dosed only with DMSO.

The target of another experiment is T2, FLAG-KDM4E (Homo sapiens, UniProt B2RXH2).
T2 construct: expressed in transfected cells; host or cells: U2OS
T2 sequence (B2RXH2 1-506): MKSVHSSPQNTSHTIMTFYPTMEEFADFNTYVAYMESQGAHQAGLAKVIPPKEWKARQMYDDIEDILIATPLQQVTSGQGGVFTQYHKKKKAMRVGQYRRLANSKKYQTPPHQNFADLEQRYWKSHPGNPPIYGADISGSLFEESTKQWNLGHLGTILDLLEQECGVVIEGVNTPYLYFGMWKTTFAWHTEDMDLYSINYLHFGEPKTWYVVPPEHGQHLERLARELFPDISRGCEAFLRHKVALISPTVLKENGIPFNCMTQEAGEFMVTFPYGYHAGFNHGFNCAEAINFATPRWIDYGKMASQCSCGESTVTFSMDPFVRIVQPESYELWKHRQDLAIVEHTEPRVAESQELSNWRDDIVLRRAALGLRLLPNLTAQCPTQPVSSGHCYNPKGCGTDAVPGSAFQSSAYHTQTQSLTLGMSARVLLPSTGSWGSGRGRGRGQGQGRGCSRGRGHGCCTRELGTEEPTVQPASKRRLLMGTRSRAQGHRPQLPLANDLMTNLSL
In words: CETSA, FLAG-KDM4E in U2OS cells. It counts as cell-based. As to conditions: 0.5 µM.

In a further experiment the test system is actin. As to conditions: U2OS cells, 0.5 μM; same for treated and untreated cells.

Procedure for FLAG-KDM4E: For CETSA melting curve experiments, 80% confluent U2OS cells in a 75 cm^2 flask were transfected with a plasmid encoding full-length Flag-tagged KDM4A1–1,064 (ref. [15]) or KDM4E1–506 (ref. [20]) using Lipofectamine 2000 (Thermo Scientific) and incubated for 4 h. The cells were washed with PBS buffer and media replaced with fresh DMEM with 10% FBS, supplemented with cyclic peptides in DMSO (0.1% DMSO final). Cell dosing was carried out for 20 h at 37 °C. Control cells were dosed only with DMSO. The cells were trypsinized and washed thrice with PBS, by centrifugation (300 g, 3 min, 4 °C). Cells were re-suspended in PBS supplemented with Complete Protease inhibitor cocktail (Sigma) and divided into 8–10 aliquots (100 μl) containing equal cell numbers in PCR tubes. For ITDRF CETSA experiments, approximately 6 × 10^6 cells were seeded evenly into nine 25 cm^2 flask and adhered before transfection. After 4 h of incubation, the cells were washed with PBS buffer and the media replaced with fresh DMEM with 10% FBS supplemented with cyclic peptides at a final concentration between 0 and 4,000 nM (0.1% DMSO final). Cells were trypsinized and washed thrice with PBS using centrifugation (300 g, 3 min, 4 °C). Cells were re-suspended in PBS supplemented with protease inhibitor cocktail (Sigma), aliquots (100 μl) containing equal cell numbers in PCR tubes were prepared. […] For ITDRF, tubes were incubated at approximately the Tm of the proteins of interest as determined by CETSA melting curve experiments, for example, 55 °C (Tm for actin) for 3 min, followed by room temperature for 3 min. […]
The samples (supernatant) were run on SDS–PAGE (NuPage Novex Bis-Tris 4–12% polyacrylamide gels with NuPAGE MES SDS running buffer (Thermo Scientific)) and transferred onto nitrocellulose membranes using either the iBlot blotting system. FLAG-KDM4A levels were determined by immunoblotting using a monoclonal mouse anti-FLAG primary antibody (F1804, Sigma), at a dilution of 1: 1,000 in PBS-T buffer containing Seablock Reagent Salmon Plasma (2% v/v, Calbiochem). […]
Procedure for actin: For CETSA melting curve experiments, 80% confluent U2OS cells in a 75 cm^2 flask were transfected with a plasmid encoding full-length Flag-tagged KDM4A1–1,064 (ref. [15]) or KDM4E1–506 (ref. [20]) using Lipofectamine 2000 (Thermo Scientific) and incubated for 4 h. The cells were washed with PBS buffer and media replaced with fresh DMEM with 10% FBS, supplemented with cyclic peptides in DMSO (0.1% DMSO final). Cell dosing was carried out for 20 h at 37 °C. Control cells were dosed only with DMSO. The cells were trypsinized and washed thrice with PBS, by centrifugation (300 g, 3 min, 4 °C). Cells were re-suspended in PBS supplemented with Complete Protease inhibitor cocktail (Sigma) and divided into 8–10 aliquots (100 μl) containing equal cell numbers in PCR tubes. […]
The samples (supernatant) were run on SDS–PAGE (NuPage Novex Bis-Tris 4–12% polyacrylamide gels with NuPAGE MES SDS running buffer (Thermo Scientific)) and transferred onto nitrocellulose membranes using either the iBlot blotting system. FLAG-KDM4A levels were determined by immunoblotting using a monoclonal mouse anti-FLAG primary antibody (F1804, Sigma), at a dilution of 1: 1,000 in PBS-T buffer containing Seablock Reagent Salmon Plasma (2% v/v, Calbiochem). […] Western blotting band intensities were quantified using Image Studio Ver. […]

As to DYVYNTRSGWRWYZC [T13Z], the “CETSA melting temperature (Tm) of FLAG-KDM4A” value on FLAG-KDM4A1-1,064 came out at 59 °C. Besides, at FLAG-KDM4E, the “CETSA stabilization / Tm shift of FLAG-KDM4E” value is recorded as “No significant changes in the Tm shift”. The “CETSA actin Tm” value in the experiment on actin worked out at 55 °C.

For the origin of these results see paper PMC5384220 (Nature Communications, 2017).
